Data published in patent publication US7320972B2, “4-Biarylyl-1-phenylazetidin-2-ones” (Microbia, Inc., priority 2003, dated 2008).

What was measured:
[1] = system: cholesterol absorption (serum 3H-cholesterol); assay: In Vivo Assay of Hypolipidemic Agents using the Rat Cholesterol Absorption Model; design: species or system Sprague-Dawley rats; settings: peroral; for % inhibition at 10 mg/kg: 10 mg/kg (footnote 1); for inhibition in vivo at 1 mg/kg: po, serum 3H-cholesterol 3 h after cholesterol dose, vs vehicle control
Summary of the method: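 Female Sprague-Dawley rats (150–250 g, 4–6 per group) were fasted overnight and dosed orally with compound in olive oil or vehicle. Thirty minutes later they received 3–5 μCi 3H-cholesterol orally in olive oil, and serum radioactivity was measured at 3 h. % inhibition = 100×(1−Ctest/Cctrl) at a fixed dose; ED50 is the dose giving half-maximal effect.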

[2] = serum 3H-cholesterol vs vehicle control

O=C1[C@H](CC[C@H](O)c2ccc(F)cc2)[C@@H](c2ccc(-c3ccc(O)cc3)cc2)N1c1ccc(F)cc1 [Example 2, (3R,4S)-1-(4-fluorophenyl)-3-[(3S)-3-(4-fluorophenyl)-3-hydroxypropyl]-4-(4′-hydroxybiphenyl-4-yl)azetidin-2-one]
% inhibition at 10 mg/kg [1, 2]: 54^1% | melting point: 110 °C

COc1ccc(-c2ccc([C@@H]3[C@@H](CC[C@H](O)c4ccc(F)cc4)C(=O)N3c3ccc(F)cc3)cc2)cc1 [Example 5, (3R,4S)-1-(4-fluorophenyl)-3-[(3S)-3-(4-fluorophenyl)-3-hydroxypropyl]-4-(4′-methoxybiphenyl-4-yl)azetidin-2-one]
% inhibition at 10 mg/kg [1, 2]: 26^1% | melting point: 103 °C

O=C1[C@H](CC[C@H](O)c2ccc(F)cc2)[C@@H](c2ccc(-c3ccccc3O)cc2)N1c1ccc(F)cc1 [Example 7, (3R,4S)-1-(4-fluorophenyl)-3-[(3S)-3-(4-fluorophenyl)-3-hydroxypropyl]-4-(2′-hydroxybiphenyl-4-yl)azetidin-2-one]
inhibition in vivo at 1 mg/kg [1]: 30% | melting point: 101 °C

COc1cc(-c2ccc([C@@H]3[C@@H](CC[C@H](O)c4ccc(F)cc4)C(=O)N3c3ccc(F)cc3)cc2)cc(OC)c1OC [Example 9, (3R,4S)-1-(4-fluorophenyl)-3-[(3S)-3-(4-fluorophenyl)-3-hydroxypropyl]-4-(3′,4′,5′-trimethoxybiphenyl-4-yl)azetidin-2-one]
inhibition in vivo at 1 mg/kg [1]: 40% | melting point: 103 °C

O=C1[C@H](CC[C@H](O)c2ccc(F)cc2)[C@@H](c2ccc(O)c(-c3ccccc3)c2)N1c1ccc(F)cc1 [Example 6, (3R,4S)-1-(4-fluorophenyl)-3-[(3S)-3-(4-fluorophenyl)-3-hydroxypropyl]-4-(6-hydroxybiphenyl-3-yl)azetidin-2-one]
melting point: 113 °C

CS(=O)(=O)c1ccc(-c2ccc([C@@H]3[C@@H](CC[C@H](O)c4ccc(F)cc4)C(=O)N3c3ccc(F)cc3)cc2)cc1 [Example 8, (3R,4S)-1-(4-fluorophenyl)-3-[(3S)-3-(4-fluorophenyl)-3-hydroxypropyl]-4-[4′-(methylsulfonyl)biphenyl-4-yl]azetidin-2-one]
inhibition in vivo at 1 mg/kg [1]: 53% | melting point: 111 °C

O=C1[C@H](CC[C@H](O)c2ccc(F)cc2)[C@@H](c2ccc(-c3cccc(O)c3)cc2)N1c1ccc(F)cc1 [Example 4, (3R,4S)-1-(4-Fluorophenyl)-3-[(3S)-3-(4-fluorophenyl)-3-hydroxypropyl]-4-(3′-hydroxybiphenyl-4-yl)azetidin-2-one]
inhibition in vivo at 1 mg/kg [1]: 72% | melting point: 107 °C

COc1cccc(-c2ccc([C@@H]3[C@@H](CC[C@H](O)c4ccc(F)cc4)C(=O)N3c3ccc(F)cc3)cc2)c1OC [Example 11, (3R,4S)-4-(2′,3′-dimethoxybiphenyl-4-yl)-1-(4-fluorophenyl)-3-[(3S)-3-(4-fluorophenyl)-3-hydroxypropyl]azetidin-2-one]
inhibition in vivo at 1 mg/kg [1]: 28% | melting point: 101 °C

CS(=O)(=O)c1cccc(-c2ccc([C@@H]3[C@@H](CC[C@H](O)c4ccc(F)cc4)C(=O)N3c3ccc(F)cc3)cc2)c1 [Example 10, (3R,4S)-1-(4-fluorophenyl)-3-[(3S)-3-(4-fluorophenyl)-3-hydroxypropyl]-4-[3′-(methylsulfonyl)biphenyl-4-yl]azetidin-2-one]
% inhibition at 3 mg/kg ([1]; 3 mg/kg (footnote 2), serum 3H-cholesterol vs vehicle control): 54^2% | melting point: 104 °C

O=Cc1cccc(-c2ccc([C@@H]3[C@@H](CC[C@H](O)c4ccc(F)cc4)C(=O)N3c3ccc(F)cc3)cc2)c1 [Example 13, 4′-{(2S,3R)-1-(4-fluorophenyl)-3-[(3S)-3-(4-fluorophenyl)-3-hydroxypropyl]-4-oxoazetidin-2-yl}biphenyl-3-carbaldehyde]
inhibition in vivo at 1 mg/kg [1]: 70%

O=C1[C@H](CC[C@H](O)c2ccc(F)cc2)[C@@H](c2ccc(-c3cccc(OC[C@H]4OC(O)[C@H](O)[C@@H](O)[C@@H]4O)c3)cc2)N1c1ccc(F)cc1 (stereo partly drawn) [Example 76, 6-O-(4′-{(2S,3R)-1-(4-Fluorophenyl)-3-[(3S)-3-(4-fluorophenyl)-3-hydroxypropyl]-4-oxoazetidin-2-yl}biphenyl-3-yl)-D-glucopyranose]
inhibition in vivo at 1 mg/kg [1]: 56%

O=C1[C@H](CC[C@H](O)c2ccc(F)cc2)[C@@H](c2ccc(-c3cccc([C@@H]4O[C@H](CO)[C@@H](O)[C@H](O)[C@H]4O)c3)cc2O)N1c1ccccc1 [Example 65, (1S)-1,5-Anhydro-1-(4′-{(2S,3R)-3-[(3S)-3-(4-fluorophenyl)-3-hydroxypropyl]-4-oxo-1-phenylazetidin-2-yl}-3′-hydroxybiphenyl-3-yl)-D-glucitol]
% inhibition at 0.1 mg/kg ([1]; 0.1 mg/kg (footnote 5), serum 3H-cholesterol vs vehicle control): 60^5%

O=C1[C@H](CC[C@H](O)c2ccc(F)cc2)[C@@H](c2ccc(-c3cccc([C@@H](O)[C@H]4OC(O)[C@H](O)[C@@H](O)[C@@H]4O)c3)cc2O)N1c1ccccc1 (stereo partly drawn) [Example 74, (6R)-6-C-(4′-{(2S,3R)-3-[(3S)-3-(4-Fluorophenyl)-3-hydroxypropyl]-4-oxo-1-phenylazetidin-2-yl}-3′-hydroxybiphenyl-3-yl)-D-glucopyranose]
inhibition in vivo at 1 mg/kg [1]: 67%

O=C1[C@H](CC[C@H](O)c2ccc(F)cc2)[C@@H](c2ccc(-c3cccc(O)c3)cc2)N1c1ccccc1 [Example 57, (3R,4S)-3-[(3S)-3-(4-Fluorophenyl)-3-hydroxypropyl]-4-(3′-hydroxybiphenyl-4-yl)-1-phenylazetidin-2-one]
inhibition in vivo at 1 mg/kg [1]: 73%

O=C1[C@H](CC[C@H](O)c2ccc(F)cc2)[C@@H](c2ccc(-c3ccc(P(=O)(O)O)cc3)cc2O)N1c1ccccc1 [Example 127, (4′-{(2S,3R)-3-[(3S)-3-(4-Fluorophenyl)-3-hydroxypropyl]-4-oxo-1-phenylazetidin-2-yl}-3′-hydroxybiphenyl-4-yl)phosphonic Acid]
inhibition in vivo at 1 mg/kg [1]: 58%

O=C1[C@H](CC[C@H](O)c2ccc(F)cc2)[C@@H](c2ccc(-c3cccc(B(O)O)c3)cc2)N1c1ccccc1 [Example 59, (4′-{(2S,3R)-3-[(3S)-3-(4-Fluorophenyl)-3-hydroxypropyl]-4-oxo-1-phenylazetidin-2-yl}biphenyl-3-yl)boronic acid]
inhibition in vivo at 1 mg/kg [1]: 70%

O=C1[C@H](CC[C@H](O)c2ccc(F)cc2)[C@@H](c2ccc(-c3cccc(O)c3)s2)N1c1ccccc1 [Example 50, (3R,4S)-3-[(3S)-3-(4-Fluorophenyl)-3-hydroxypropyl]-4-[5-(3-hydroxyphenyl)-2-thienyl]-1-phenylazetidin-2-one]
inhibition in vivo at 1 mg/kg [1]: 27%
